Assays:
[1] = system: FOXM1 target gene expression in MCF7 cells; experiment: FOXM1 target gene expression by qRT-PCR; format: cell-based, human; details: MCF7, 24 h, compound at its IC50 for proliferation
Protocol: Total RNA was isolated using TRIzol (Invitrogen) and reverse transcribed using […] reverse transcriptase (New England BioLabs). Real-time PCR was performed using SYBRgreen PCR Master Mix (Quantabio) as described.[15] Relative mRNA levels of genes were normalized to the housekeeping gene 36B4, and fold-change calculated relative to the vehicle treated samples. Results are the average ± SD from at least two independent experiments carried out in triplicate. Primer sequences for the genes studied were obtained from the Harvard Primer Bank. Sequences are available on their website.

MCF10A breast cell line = experiment: Cell proliferation in non-tumorigenic MCF10A cells; format: cell-based, human; details: low level of FOXM1
Protocol: (§1) WST-1 assay (Roche, Basel, Switzerland) was used to quantify cell viability as described.[38] Absorbance was measured at 450 nm using a VICTOR X5 PerkinElmer 2030 Multilabel Plate Reader. All assays were performed in triplicate and analyzed using Graph Pad Prism 8.0.

[2] = system: human breast cancer cell lines (DT22, MCF7, T47D, BT474, MDA-MB-453, MDA-MB-468, MDA-MB-231); experiment: Cell proliferation (WST-1) in panel of breast cancer cell lines; format: cell-based
Protocol: as §1

FOXM1 [3] = molecular target: T1, FOXM1 (Homo sapiens, UniProt Q08050); experiment: Intracellular localization of FOXM1 (immunofluorescence, nuclear/cytoplasmic fractionation); format: cell-based; design: endogenous in cells; host or cells: MDA-MB-231, MCF7; details: 24 h, Western blot of nuclear and cytoplasmic extracts
T1 sequence (Q08050 1-763): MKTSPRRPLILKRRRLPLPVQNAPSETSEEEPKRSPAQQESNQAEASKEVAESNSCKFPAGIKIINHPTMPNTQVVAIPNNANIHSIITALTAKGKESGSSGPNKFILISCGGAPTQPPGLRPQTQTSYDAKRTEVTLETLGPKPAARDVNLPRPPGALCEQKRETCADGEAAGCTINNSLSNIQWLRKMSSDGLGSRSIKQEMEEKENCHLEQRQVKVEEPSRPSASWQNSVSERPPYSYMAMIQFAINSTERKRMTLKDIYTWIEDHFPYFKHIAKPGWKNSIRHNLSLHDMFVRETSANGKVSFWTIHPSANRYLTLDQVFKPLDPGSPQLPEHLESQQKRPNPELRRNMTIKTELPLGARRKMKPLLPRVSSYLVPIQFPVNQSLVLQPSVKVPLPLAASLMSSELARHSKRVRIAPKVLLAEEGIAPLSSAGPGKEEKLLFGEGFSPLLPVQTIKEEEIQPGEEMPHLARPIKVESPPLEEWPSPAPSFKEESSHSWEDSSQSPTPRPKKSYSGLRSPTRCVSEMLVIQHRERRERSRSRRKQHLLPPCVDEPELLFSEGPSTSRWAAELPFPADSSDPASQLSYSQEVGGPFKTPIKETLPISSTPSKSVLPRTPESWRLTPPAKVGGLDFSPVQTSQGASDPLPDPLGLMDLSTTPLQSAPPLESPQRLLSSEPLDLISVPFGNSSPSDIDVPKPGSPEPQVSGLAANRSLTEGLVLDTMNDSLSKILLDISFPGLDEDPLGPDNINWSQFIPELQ
Protocol: (§2) In some cases, treatments with compound were done in the presence of the proteasome inhibitor MG132 (Calbiochem) as described in the figure legend. […] Band intensities were analyzed with Licor Odyssey 2.1 software. All blots shown together derive from the same experiment and were processed in parallel. Full uncropped images of blots are shown as supplementary figures in the Supplementary Information file. Molecular weight markers were Rainbow markers from GE Healthcare (38–225 kDa) or Precision Plus Dual Color Markers from Biorad (37–250 kDa).

FOXM1 [4] = molecular target: T1, FOXM1; experiment: Cellular FOXM1 protein level by Western blot; format: cell-based; design: endogenous in cells; host or cells: MDA-MB-231, MCF7; details: MDA-MB-231 or MCF7 cells over time; NB-55 5/8 µM, NB-73 1.5/4 µM, NB-115 4 µM, FDI-6 8 µM
Protocol: as §2, with “For Western blot analysis, whole-cell extracts were prepared using 1X RIPA lysis buffer (Thermo Fisher) supplemented with 1X protease inhibitor cocktail (Millipore Sigma). […] In some” for “In some”

IC50 ([2]; Homo sapiens, breast cancer cell lines, read-out: IC50 for inhibition of proliferation): 2 to 10 µM
intracellular level of FOXM1 (FOXM1 [4]): reduced the intracellular level of FOXM1
SMILES: Clc1ccc(C(=C2C3CC4CC(C3)CC2C4)c2ccc(OCCCCCCN3CCCC3)cc2)cc1 [NB-55]
expression of ATF3, a gene suppressed by FOXM1 [1]: increased expression of ATF3
expression of FOXM1 stimulated target genes (FOXM1C, AURKB, CCNB1, PLK1) [1]: significantly reduced the expression
concentration for 50% suppression of proliferation relative to breast cancer cell lines (MCF10A breast cell line): five times higher
reduced potency in suppression of cell proliferation ([2]; dose-response studies in cells in culture): 5 fold
intracellular localization of FOXM1 (FOXM1 [3]): does not change the intracellular localization of FOXM1

Reference: paper PMC6884575, “Suppression of FOXM1 activities and breast cancer growth in vitro and in vivo by a new class of compounds” (NPJ Breast Cancer, 2019)
